Read-outs that look alike come from different tables or passages of the source.

For data set [1], the system named is Puccinia recondita. The experiment in a line: In vivo preventive test on Puccinia recondita (brown rust on wheat). The note with it: 264 h, read-out: efficacy.
In data set [2] the test system is Colletotrichum lindemuthianum. The experiment in a line: Colletotrichum lindemuthianum in vitro cell test. In kind it is cell-based. To be noted: 144 h, read-out: efficacy.
The conditions of data set [3]: for LogP: method [a]: LC-UV, acidic range, Table 1.
Protocol: (§1) Measurement of LogP values was performed according to EEC directive 79/831 Annex V.A8 by HPLC (High Performance Liquid Chromatography) on reversed phase columns with the following methods:
(§2) [a] LogP value is determined by measurement of LC-UV, in anacidic range, with 0.1% formic acid in water and acetonitrile as eluent (linear gradient from 10% acetonitrile to 95% acetonitrile). [b] LogP value is determined by measurement of LC-UV, in a neutral range, with 0.001 molar ammonium acetate solution in water and acetonitrile as eluent (linear gradient from 10% acetonitrile to 95% acetonitrile). [c] LogP value is determined by measurement of LC-UV, in an acidic range, with 0.1% phosphoric acid and acetonitrile as eluent (linear gradient from 10% acetonitrile to 95% acetonitrile).
(§3) If more than one LogP value is available within the same method, all the values are given and separated by “+”.
Data set [4] in a line: physchem.
Protocol: as §1, §2, §3
[5] abbreviates: 500 ppm of active ingredient, wheat sprayed 24 hours before contamination, evaluated 11 days after the inoculation.
[6] abbreviates: 20 ppm of active ingredient, inhibition of fungal growth, 6 days incubation, liquid culture.

Regarding `CN(C)C(=O)Oc1ccc(C2=NOC(O)(C(F)(F)Cl)C2)cc1` (stereo not shown) [Ib-095, 4-{5-[Chloro(difluoro)methyl]-5-hydroxy-4,5-dihydro-1,2-oxazol-3-yl}phenyl dimethylcarbamate], the pest or weed control at 500 ppm in data set [1] is 90 to 100%. Besides, the inhibition of growth at 20 ppm in data set [2] lay in the range of 80 to 89%. In data set [3], the chromatographic logP was determined as 2.35.
For `OC1(C(F)(F)F)CC(c2ccc(-c3cncnc3)cc2)=NO1` (stereo not shown) [Ia-087, 3-[4-(pyrimidin-5-yl)phenyl]-5-(trifluoromethyl)-4,5-dihydro-1,2-oxazol-5-ol], the pest or weed control at 500 ppm in data set [1] (setting [5]) is 90 to 100%. In addition, in data set [2] (setting [6]), the inhibition of growth at 20 ppm lay in the range of 90 to 100%. The molecule also had a chromatographic logP in data set [4] of 1.86.
On to `O=C(O)c1ccc(C2=NOC(O)(C(F)(F)Cl)C2)cc1` (stereo not shown) [Ib-048, 4-{5-[chloro(difluoro)methyl]-5-hydroxy-4,5-dihydro-1,2-oxazol-3-yl}benzoic acid], for which the chromatographic logP in data set [4] is 1.84.
As for `CCc1noc(-c2ccc(C3=NOC(OC(C)=O)(C(F)(F)F)C3)cc2)n1` (stereo not shown) [Ia-095, [3-[4-(3-Ethyl-1,2,4-oxadiazol-5-yl)phenyl]-5-(trifluoromethyl)-4H-isoxazol-5-yl]acetate], the LogP in data set [3] is 3.68^[a].
Regarding `CC(O)c1ccc(C2=NOC(O)(C(F)(F)F)C2)cc1` (stereo not shown) [Ia-044, 3-[4-(1-hydroxyethyl)phenyl]-5-(trifluoromethyl)-4,5-dihydro-1,2-oxazol-5-ol], the pest or weed control at 500 ppm in data set [1] (setting [5]) was 90 to 100%. Further, in data set [2] (setting [6]), the inhibition of growth at 20 ppm fell in the range of 80 to 89%. In data set [4], this molecule came in with a chromatographic logP of 1.78.
Molecule `COC(=O)c1ccc(C2=NOC(O)(C(F)(F)Cl)C2)cc1` (stereo not shown) [Ib-049, methyl 4-{5-[chloro(difluoro)methyl]-5-hydroxy-4,5-dihydro-1,2-oxazol-3-yl}benzoate] had a chromatographic logP in data set [4] of 2.55.
`CC(=O)c1ccc(C2=NOC(O)(C(F)(F)F)C2)cc1` (stereo not shown) [Ia-038, 1-{4-[5-hydroxy-5-(trifluoromethyl)-4,5-dihydro-1,2-oxazol-3-yl]phenyl}ethanone]: the pest or weed control at 500 ppm in data set [1] (setting [5]) was 90 to 100%. The inhibition of growth at 20 ppm in data set [2] (setting [6]) lay in the range of 90 to 100%. For the same molecule, in data set [4], the chromatographic logP is 2.11.
On to `OC1(C(F)(F)F)CC(c2ccc(-c3ccc4sccc4c3)cc2)=NO1` (stereo not shown) [Ia-108], for which, in data set [3], the LogP is 3.94^[a].
For `NCc1ccc(C2=NOC(O)(C(F)(F)F)C2)cc1` (stereo not shown) [Ia-112, 3-(4-Aminomethyl-phenyl)-5-trifluoromethyl-4,5-dihydro-isoxazol-5-ol], in data set [1] (setting [5]), the pest or weed control at 500 ppm was 90 to 100%. In data set [4], this molecule yielded a chromatographic logP of 0.63.
`CCc1noc(-c2ccc(C(=O)/C=C(\O)C(F)(F)F)cc2)n1` [Compound 1b-02, 1-[4-(3-Ethyl-1,2,4-oxadiazol-5-yl)phenyl]-4,4,4-trifluoro-3-hydroxy-but-2-en-1-one] showed a chromatographic logP in data set [4] of 2.43.
On to `OC1(C(F)(F)F)CC(c2ccc(C#CC3CC3)cc2)=NO1` (stereo not shown) [Ia-031, 3-[4-(cvclopropvlethvnvl)phenyl]-5-(trifluoromethyl)-4,5-dihydro-1,2-oxazol-5-ol], for which the pest or weed control at 500 ppm in data set [1] (setting [5]) was 80 to 89%. The inhibition of growth at 20 ppm in data set [2] (setting [6]) is 90 to 100%. Further, in data set [4], the chromatographic logP is 3.41.
`Cc1ccc(C)n1-c1ccc(C(=O)CC(=O)C(F)(F)F)cc1` [Compound 1b-35, 1-[4-(2,5-dimethyl-1H-pyrrol-1-yl)phenyl]-4,4,4-trifluoro-1,3-butanedione] showed a chromatographic logP in data set [4] of 3.21.
`CN(C(=O)c1ccc(C(=O)/C=C(\O)C(F)(F)F)cc1)c1ccccc1` [Compound 1b-01] displayed a chromatographic logP in data set [4] of 2.17.
Consider `CCc1noc(-c2ccc(C3=NOC(O)(C(F)(F)F)C3)cc2)n1` (stereo not shown) [Ia-093, 3-[4-(3-Ethyl-1,2,4-oxadiazol-5-yl)phenyl]-5-(trifluoromethyl)-4H-isoxazol-5-ol], for which, in data set [1] (setting [5]), the pest or weed control at 500 ppm fell in the range of 90 to 100%. In addition, the inhibition of growth at 20 ppm in data set [2] (setting [6]) lay within 90 to 100%. Moreover, in data set [4], the chromatographic logP came to 2.88.
Molecule `COC(=O)c1ccc(C(=O)CC(=O)C(F)(F)Cl)cc1` [Compound 1b-04, methyl 4-(4-chloro-4,4-difluoro-3-oxobutanoyl)benzoate] had a chromatographic logP in data set [4] of 2.11.
Turning to `Nc1ccc(C2=NOC(O)(C(F)(F)F)C2)cc1` (stereo not shown) [Ia-114, 3-(4-aminophenyl)-4,5-dihydro-5-(trifluoromethyl)-5-isoxazolol], the pest or weed control at 500 ppm in data set [1] (setting [5]) was in the range of 90 to 100%. Also, the inhibition of growth at 20 ppm in data set [2] (setting [6]) was 80 to 89%. Further, the chromatographic logP in data set [4] worked out at 1.49.
Take `OC1(C(F)(F)F)CC(c2ccc(-c3ccc(F)cc3)cc2)=NO1` (stereo not shown) [Ia-075, 3-(4′-fluoro[biphenyl]-4-yl)-5-(trifluoromethyl)-4,5-dihydro-1,2-oxazol-5-ol]: the pest or weed control at 500 ppm in data set [1] (setting [5]) is 80 to 89%. Also, the inhibition of growth at 20 ppm in data set [2] (setting [6]) is 90 to 100%. The chromatographic logP in data set [4] amounted to 3.46.
In the case of `CON=C(C)c1ccc(C2=NOC(O)(C(F)(F)F)C2)cc1` (stereo not shown) [Ia-037, 3-[4-(N-methoxvethanimidovl)phenyl]-5-(trifluoromethyl)-4,5-dihydro-1,2-oxazol-5-ol], in data set [2] (setting [6]), the inhibition of growth at 20 ppm was 90 to 100%. In data set [4], this molecule came in with a chromatographic logP of 2.98.
Molecule `O=C(Nc1ccc(F)cc1F)c1ccc(C2=NOC(O)(C(F)(F)Cl)C2)cc1` (stereo not shown) [Ib-030, 4-{5-[chloro(difluoro)methyl]-5-hydroxy-4,5-dihydro-1,2-oxazol-3-vl}-N-(2,4-difluorophenyl)benzamide] showed a chromatographic logP in data set [4] of 2.76.

Values taken from patent US20210009575A1, “HYDROXYISOXAZOLINES AND DERIVATIVES THEREOF” (Bayer Aktiengesellschaft, priority 2017, published 2021).
